Laboratory results reported in patent publication US20090258951A1, “Use of vanillyl alcohol for the treatment of Parkinson's disease” (Red Pharma & Biotech Research Corporation, priority 2008, published 2009).

Assays:
[1] = test system: rat with right-side substantia nigra destroyed by 6-OHDA (6-hydroxydopamine); assay: Amphetamine-induced rotation of rat with substantia nigra destroyed by 6-OHDA (animal gyroscope); assay type: in vivo
Method: (§1) After affixing rear head of a rat with a three-dimensional tightener and anaesthetizing the rat, then inject substantia nigra located at the right side of brain of the rat with 6-OHDA (6-hydroxydopamine) to destroy substantia nigra to make the rat produce tremor, rigidity, bradykinesia etc. Next, after the rat returns to and stays in room for 2 weeks, it is given amphetamine (5 mg/1000 g) via belly injection and then starts rotating round an animal gyroscope, wherein the number of rotations will be recorded (if the number of rotations exceeds 300 rotations per an hour, it means that the amphetamine has effected on the rat).
The substantia nigra of the brain of the rat is a tissue to release dopamine so that the injected amphetamine may accelerate the substantia nigra to release a large amount of dopamine. However, the substantia nigra located at the right side of brain of the rat has been destroyed by the 6-OHDA (6-hydroxydopamine) already unable to release dopamine any more, although the rat is injected with amphetamine for stimulation but the left side of body movement which is controlled by the right side of brain remains rigidity and bradykinesia. On the other hand, the substantia nigra located at the left side of brain of the rat is in normal condition without any injury so hyperkinesia occurs on the right side of body movement which is controlled by the left side of brain due to acceleration of amphetamine, that's why the rat keeps rotating for right turn (clockwise) and even uncontrollably.
(§2) With reference to FIG. 4, the rat is given with amphetamine about 1 mg per 1 kg of body weight thereof via belly injection and rotates round an animal gyroscope on 28th, 36th, 43rd and 52nd day respectively for right turn (clockwise) and left turn (counterclockwise), in which the number of rotations will be recorded.
as §2, with “to FIG. 5, the rat” for “to FIG. 4, the rat”, “injection and further provided with Vanillyl alcohol about 30 mg. Next, the rat rotates round” for “injection and rotates round”

[2] = test system: rat with right-side substantia nigra destroyed by 6-OHDA (6-hydroxydopamine); assay type: in vivo
Method: as §1
The substantia nigra of the brain of the rat is a tissue to release dopamine so that the injected amphetamine may accelerate the substantia nigra to release a large amount of dopamine. […]
With reference to FIG. 7, the rat is given with L-DOPA about 50 mg per 1 kg of body weight thereof via belly injection and further provided with Vanillyl alcohol about 30 mg. […] Next, the rat rotates round an animal gyroscope on 28th, 36th, and 52nd day respectively for right turn (clockwise) and left turn (counterclockwise), in which the number of rotations will be recorded.

| SMILES | number of rotations for right turn (clockwise) ([1]; amphetamine about 1 mg per 1 kg via belly injection plus Vanillyl alcohol about 30 mg, days 28, 36, 43, 52, effect since 43rd day, 52nd day most apparent (FIG. 5)) | behavioral asymmetry between right side and left side ([1]; amphetamine about 1 mg per 1 kg via belly injection plus Vanillyl alcohol about 30 mg, effect since 43rd day, 52nd day most apparent (FIG. 5)) | movements of the rat ([2]; L-DOPA about 50 mg per 1 kg via belly injection plus Vanillyl alcohol about 30 mg, benserazide 30 mg per 1 kg 30 minutes before, days 28, 36, 52 (FIG. 7)) | behavioral unbalance between right and left sides induced by L-DOPA ([2]; Vanillyl alcohol about 30 mg in combination with L-DOPA about 50 mg per 1 kg, benserazide pre-treatment (FIG. 7)) | number of rotations for left turn (counterclockwise) ([1]; amphetamine about 1 mg per 1 kg via belly injection alone, days 28, 36, 43, 52, symptom since 36th day (FIG. 4)) | behavioral asymmetry between right side and left side ([1]; amphetamine about 1 mg per 1 kg via belly injection alone, symptom since 36th day (FIG. 4)) |
| --- | --- | --- | --- | --- | --- | --- |
| COc1cc(CO)ccc1O [Vanillyl alcohol, 4-hydroxy-3-methoxy-benzyl alcohol] | decreased gradually | decreased apparently | almost normal | inhibit |  |  |
| CC(N)Cc1ccccc1 (stereo not drawn) [amphetamine, reference compound] |  |  |  |  | decreased gradually | increased apparently |
